Measured values from US20260215425A1, “NITRIFICATION INHIBITORS” (The University of Melbourne, priority 2022, published 2026).

Tests used:
[1] = system: N. europaea and N. multiformis; assay: activity recovery assay (binding studies); format: cell-based; details: [inhibitor]=1.5 mM, 30 min, then washed and re-incubated with (NH4)2SO4
Protocol: Cells were harvested using the ‘standard cell harvesting protocol’. The bacteria solution was adjusted to an OD600=0.8 (100 μg/L protein) and 980 μL aliquots were transferred to 1.5 mL centrifuge tubes (Eppendorf®, polypropylene). 10 μL of the inhibitor solution (150 mM in DMSO) was added and pre-equilibrated for 5 min; 10 μL of aqueous 150 mM (NH4)2SO4 (final concentration in tube=3 mM) was added by via multichannel pipette to ensure simultaneous addition in each tube. The tubes were incubated in a temperature-regulated rotary incubator (Ratek, Australia) for 30 min at 30° C. at 100 rpm in the dark. After 30 minutes, a 50 μL aliquot was transferred to a 96-well plate (Greiner Cellstar®, polystyrene), 50 μL of Griess reagent was added and the mixture incubated for 15 minutes. The absorbance was measured photometrically (Clariostar® BMG Labtech, Australia) at 540 nm. The cells were washed repeatedly (3×) by periodic centrifuging (Boeco, Germany; 10.000 rpm, 10 min) and resuspending the pellet in 1 mL NaPB. After the final centrifuging step, the pellet was resuspended in 990 μL NaPB and re-incubated with (NH4)2SO4 (10 μL of an aqueous 150 mM solution), and the NO2 concentration was measured under the previously described conditions. Each assay was accompanied by control treatments to determine the 0% and 100% NO2 signal. […]

N. europaea = assay: standard nitrification inhibition assay (NO2- production, Griess); format: cell-based, Nitrosomonas europaea; details: [NH4+]=3 mM, [inhibitor]=0.3 mM (10 mol %), pH 7.5, 30° C., 60 min
Protocol: Cells of N. multiformis and N. europaea were cultivated to the mid-exponential growth phase (OD600=0.1, [NO2^−] approximately 800 μM) and harvested by filtration onto 0.2 μm membrane filters (Mixed Cellulose Ester (MCE), Sigma Aldrich). The cells were washed with 2×100 mL of 0.1 M sodium phosphate buffer (NaPB), containing 0.2 mM MgSO4 at pH 7.5. The cells were washed from the filter paper by transferring it to a sterile 50 mL tube and resuspending in NaPB (15 mL), followed by 5 s of vortexing (Ratek, Australia) and 3 s of sonication (Vevor, Australia). […] Experiments were performed in triplicate.
In a deep 96-well plate (2 mL capacity), 980 μL of the bacterial inoculum (OD600=0.03) was added to the inhibitor (10 μL, 30 mmol L^−1 in Milli-Q water), the solutions were mixed thoroughly and pre-incubated in the dark for 5 minutes at 100 rpm and 30° C. (NH4)2SO4 (10 μL, 150 mM, from a prepared sterile solution containing 19.8 g L^−1 (NH4)2SO4 in Milli-Q water) was then added using a multi-channel pipette. The plate was covered with a with an O2 permeable membrane to ensure aeration (Breathe-Easy® sealing membrane, Sigma Aldrich) and incubated in a temperature-regulated rotary incubator (Ratek, Australia) in the dark for 60 minutes at 30° C. and 100 rpm. An aliquot of the reaction solution ([…]) was transferred to a 96-well spectrophotometric plate to which 50 µL of Griess reagent was added. The colour was allowed to develop for 15 minutes at room temperature, and the absorbance was measured at 540 nm. Each assay was accompanied by control treatments to determine the 0% and 100% NO2 signal. The percentage inhibition was calculated according to eqn. 1 from the NO2 production of the cells in NaPB (i) without additive (‘untreated cells’: 0% signal), (ii) with [NH4^+]=3 mM (‘uninhibited’ cells: 100% signal) and (iii) with [NH4^+]=3 mM and [inhibitor]=0.3 mM and 0.03 mM (10 mol % and 1 mol % of [NH4^+], ‘inhibited cells’). Experiments were performed in triplicate.

C#CCn1cc(C)nn1 [Compound 4-MPT, 4-Methyl-1-(prop-2-yn-1yl)-1H-1,2,3-triazole]
recovery of activity of cells after three washing steps [1]: could not be recovered
% Inhibition NE (N. europaea): 77%
